Values of other authors, collected in patent publication US11857556B2, “Topical compositions of dutasteride” (SHILPA MEDICARE LIMITED, priority 2021, dated 2024).

Solubility in ethanol, methanol and polyethylene glycol 400 (ethanol, methanol and polyethylene glycol 400): soluble | Solubility in water (water): insoluble
Compound: C[C@]12C=CC(=O)N[C@@H]1CC[C@@H]1[C@@H]2CC[C@]2(C)[C@@H](C(=O)Nc3cc(C(F)(F)F)ccc3C(F)(F)F)CC[C@@H]12 [Dutasteride, (5α,17β)-N-{2,5-bis(trifluoromethyl)phenyl}-3-oxo-4-azaandrost-1-ene-17-carboxamide]
